Data on three compounds can be found in patent publication US12186425B2, “Devices and methods for reducing cystine crystals in vivo” (University of Florida Research Foundation, Inc., priority 2017, dated 2025).

≈ marks a conversion by molar mass, not a printed value.

For data set [1] the following is noted: rabbit, in vivo; cited from earlier work.
A short description of data set [2]: Solubility of cystine. The class given is physicochemical. As to conditions: phosphate buffered saline, aqueous buffer; read-out: saturated solution of cystine.
The conditions of data set [3]: reported; cited from earlier work.

On to `NCCS` [cysteamine, β-mercaptoethylamine], for which the “eye drop concentration above which toxicity occurred” value in data set [1] is given as greater than 0.55%. As for `N[C@@H](CSSC[C@H](N)C(=O)O)C(=O)O` [cystine], the solubility thermodynamic in data set [2] was determined as 110 µg/mL (≈ 458 µM). Consider `CC(C)(C)NC[C@H](O)COc1nsnc1N1CCOCC1` [timolol], for which, in data set [3], the epithelium permeability is 1.2×10^−7 m/s.
